Legend:
[1] = test system: sub-genomic HCV replicon of genotype 1a; assay: Activity determination using the ELISA and the sub-genomic replicon 1a cell line (NS5A protein level, W11.8 cells); assay type: cell-based; details: Hepatitis C virus, W11.8, 96 h, drug treatment for four days
Source text: Activity Determination Using the ELISA and the Sub-Genomic Replicon 1a Cell Line
The cell line W11.8 containing the sub-genomic HCV replicon of genotype 1a is used to determine the potency of the drugs. The RNA replication in presence of different drug concentrations is indirectly measured in this cell line by the level of NS5A protein content upon drug treatment for four days. It is shown that the level of the NS5A protein correlates well with the level of HCV RNA in the replicon cell line. Cells are split twice a week in order to keep the confluence state below 85% of the culture flask surface area. The culture media used for cell passaging consists of DMEM-10% foetal bovine serum with 100 UI/mL penicillin, 100 μg/mL streptomycin, 2 mM glutamine, 1 mM sodium pyruvate, non-essential amino acids (1×) and 600 μg/mL of G418 final concentrations. Monolayer of the W11.8 cells is trypsinized and cells are counted. Cells are diluted at 50,000 cells/mL with complete DMEM without G418, then approximately 5,000 viable cells (100 μL) are plated per well in a white opaque 96-well microtiter plate. After an incubation period of 2-4 hours at 37° C. in a 5% CO2 incubator, compounds are added at various concentrations. Drugs are resuspended in DMSO at a stock concentration of 10 mM. Then, drugs are serially diluted at twice the final concentration in the same medium. One volume (100 μL) of each drug dilution is then added to each well that contains cells.
A control compound is used as an internal standard for each plate assay. Sixteen wells are used as control (0% inhibition) without drug. […] Values from 100% inhibited wells were averaged and used as the background value. Cells are further incubated for four days at 37° C. in a 5% CO2 incubator. Following the incubation time of four days, the media is removed and wells are washed once with 150 μL of PBS at room temperature for five minutes. Cells are then fixed for five minutes using 150 μL per well of cold (−20° C.) fixative solution (50% methanol/50% acetone mix). Cells are then washed twice with 150 μL of PBS (phosphate buffered saline) per well, following the addition of 150 μL of blocking solution, cells are incubated for one hour at 37° C. to block non-specific sites. The blocking solution is removed and cells are washed twice with 150 μL of PBS per well and once with 150 μL of PBSTS solution (PBS/0.1% Triton X-100/0.02% SDS) per well. Then, 50 μL of mouse monoclonal anti-NS5A antibody (Santa Cruz, Cat. No. sc-52417) is added in each well, diluted 1/1,000 in the blocking solution and incubated at 4° C. overnight. Next day, media is removed and plates are washed five times with 150 μL of PBS per well with five-minute incubations at room temperature. Then 50 μL per well of peroxidase-conjugated donkey anti-mouse antibody (Jackson Immunoresearch, Cat. No. 715-036-150) diluted 1/10,000 in the blocking solution is added and incubated at room temperature for three hours on a shaker (500 rpm). Plates are washed four times with 150 μL of PBSTS solution per well and once with 150 μL of PBS. Then, substrate solution (100 μl, SuperSignal ELISA Pico Chemiluminescent Substrate, Fisher Cat. No. 37069) is added in each well and plates are incubated 60 minutes at room temperature prior to reading the luminescence (relative light units) on the Analyst HT plate reader. The percentage of inhibition at each drug concentration tested (in duplicate) is calculated. […]

[2] = test system: HCV 1b genotype; assay: Cell-based luciferase reporter HCV (Ib) RNA replication assay (Huh-ET replicon cells); details: Hepatitis C virus, 96 h; HCV 1b genotype replicon, 4 days incubation, luciferase readout
Source text: Cell-Based Luciferase Reporter HCV (Ib) RNA Replication Assay Cell Culture
Replicon cell lines Huh-5.2 are derived from the Huh-7 hepatocarcinoma cell line are maintained in culture as generally described in Krieger, N; Lohmann, V; Bartenschlager, R. Enhancement of hepatitis C virus RNA replication by cell culture-adaptive mutations. J. Virol. 2001, 75, 4614-4624. The Huh-5.2 cells contain the highly cell culture-adapted replicon I389 Luc-ubi-neo/NS3-375.1 construct that carries, in addition to the neomycin gene, an integrated copy to the firefly luciferase gene (Krieger, N; Lohmann, V; Bartenschlager, R. Enhancement of hepatitis C virus RNA replication by cell culture-adaptive mutations. J. Virol. 2001, 75, 4614-4624). This cell line allows measurement of HCV RNA replication and translation by measuring luciferase activity. It has been previously shown that the luciferase activity tightly follows the replicon RNA level in these cells (Krieger, N; Lohmann, V; Bartenschlager, R. Enhancement of hepatitis C virus RNA replication by cell culture-adaptive mutations. J. Virol. 2001, 75, 4614-4624). The Huh-ET cell line has the same features as those mentioned for Huh-5.2 cell line, except that ET cells are more robust and contain an adaptative mutation in the HCV NS4B gene instead of NS5A. Both cell lines are maintained in cultures at a sub-confluent level (<85%) as the level of replicon RNA is highest in actively proliferating cells. The culture media used for cell passaging consist of DMEM (Gibco BRL Laboratories, Mississauga, ON, Canada) supplemented with 10% foetal bovine serum with 1% penicilin/streptomycin, 1% glutamine, 1% sodium pyruvate, 1% non-essential amino acids, and 180 μg/ml of G418 final concentration. Cells are incubated at 37° C., in an atmosphere of 5% CO2 and passaged twice a week to maintain sub-confluence.
Approximately 3000 viable Huh-ET cells (100 μl) are plated per well in a white opaque 96-well microtiter plate. The cell culture media used for the assay is the same as described above except that it contains no G418 and no phenol red. After an incubation period of 3-4 hours at 37° C. in a 5% CO2 incubator, compounds (100 μl) are added at various concentrations. Cells are then further incubated for 4 days at 37° C. in a 5% CO2 incubator. Thereafter, the culture media is removed and cells are lysed by the addition of 95 μL of the luciferase buffer (luciferin substrate in buffered detergent). Cell lysates are incubated at room temperature and protected from direct light for at least 10 minutes. Plates are read for luciferase counts using a luminometer (Wallac MicroBeta Trilux, Perkin Elmer™, MA, USA).
The 50% inhibitory concentrations (IC50s) for inhibitory effect are determined from dose response curves using eleven concentrations per compound in duplicate. Curves are fitted to data points using nonlinear regression analysis, and IC50s are interpolated from the resulting curve using GraphPad Prism software, version 2.0 (GraphPad Software Inc., San Diego, Calif., USA).
EC50 ranges are presented in micromolar as follows: μM+++<=0.005<++<=5.0<+.

Row | SMILES | IC50 [1] [nM] | IC50 [2] [nM]
1 | COC(=O)N[C@H](C(=O)N1CCC[C@H]1c1ncc(C#Cc2ccc(C#Cc3cnc([C@@H]4CCCN4C(=O)[C@@H](NC(=O)OC)C(C)C)[nH]3)cc2)[nH]1)C(C)C | 4.8 | –
2 | COC(=O)N[C@H](C(=O)N1CCC[C@H]1c1ncc(-c2ccc(-c3ccc(-c4cnc([C@@H]5CCCN5C(=O)[C@@H](NC(=O)OC)C(C)C)[nH]4)cc3)cc2)[nH]1)C(C)C | 0.05 | –
3 | COC(=O)N[C@H](C(=O)N1C[C@@H](C)C[C@H]1c1ncc(-c2ccc(-c3ccc(-c4cnc([C@@H]5C[C@H](C)CN5C(=O)[C@@H](NC(=O)OC)C(C)C)[nH]4)cc3)cc2)[nH]1)C(C)C [Compound 1] | 0.017 | ≤ 5
4 | COC(=O)N[C@H](C(=O)N1C[C@@H](C)C[C@H]1c1ncc(C#Cc2ccc(C#Cc3cnc([C@@H]4C[C@H](C)CN4C(=O)[C@@H](NC(=O)OC)C(C)C)[nH]3)cc2)[nH]1)C(C)C [Compound 4] | 0.055 | ≤ 5
5 | COC(=O)N[C@H](C(=O)N1[C@@H](C)CC[C@H]1c1ncc(C#Cc2ccc(C#Cc3cnc([C@@H]4CC[C@H](C)N4C(=O)[C@@H](NC(=O)OC)C(C)C)[nH]3)cc2)[nH]1)C(C)C [drawing 272] | 0.24 | –

Reference: US20130072523A1, “ANALOGUES FOR THE TREATMENT OR PREVENTION OF FLAVIVIRUS INFECTIONS” (VERTEX PHARMACEUTICALS INCORPORATED, priority 2009, published 2013)
